Experimental data reported in ChEMBL document CHEMBL4316596, “Antimicrobial Peptides with High Proteolytic Resistance for Combating Gram-Negative Bacteria” (J Med Chem, 2019).

Experiments:
[1] = system: Pseudomonas aeruginosa; assay: Bactericidal activity against Pseudomonas aeruginosa CICC 21625 clinical isolates incubated for 4 hrs followed by culture spread on agar plates and cultured overnight; format: functional; conditions: CICC 21625, 4 h, read-out: MBC>99.9
[2] = system: Escherichia coli; assay: Antimicrobial activity against Escherichia coli ATCC 25922 after 24 hrs by NCCLS-protocol based assay; format: functional; conditions: ATCC 25922, 24 h
[3] = system: Pseudomonas aeruginosa; assay: Bactericidal activity against Pseudomonas aeruginosa CICC 21630 clinical isolates incubated for 4 hrs followed by culture spread on agar plates and cultured overnight; format: functional; conditions: CICC 21630, 4 h, read-out: MBC>99.9
[4] = system: Escherichia coli; assay: Bactericidal activity against Escherichia coli UB1005 incubated for 4 hrs followed by culture spread on agar plates and cultured overnight; format: functional; conditions: UB1005, 4 h, read-out: MBC>99.9
[5] = system: Pseudomonas aeruginosa; assay: Bactericidal activity against Pseudomonas aeruginosa PAO1 incubated for 4 hrs followed by culture spread on agar plates and cultured overnight; format: functional; conditions: PAO1, 4 h, read-out: MBC>99.9
[6] = Antimicrobial activity against Salmonella pullorum C7913 after 24 hrs by NCCLS-protocol based assay; format: functional, Salmonella enterica subsp. enterica serovar Pullorum; conditions: Salmonella enterica, C7913, 24 h
[7] = system: Pseudomonas aeruginosa; assay: Antimicrobial activity against Pseudomonas aeruginosa ATCC 27853 after 24 hrs by NCCLS-protocol based assay; format: functional; conditions: ATCC 27853, 24 h
[8] = system: Escherichia coli; assay: Antimicrobial activity against Escherichia coli K99 after 24 hrs by NCCLS-protocol based assay; format: functional; conditions: K99, 24 h
[9] = system: Pseudomonas aeruginosa; assay: Antimicrobial activity against Pseudomonas aeruginosa 25349 clinical isolates after 24 hrs by NCCLS-protocol based assay; format: functional; conditions: Pseudomonas aeruginosa, 25349, 24 h
[10] = system: Salmonella typhimurium; assay: Bactericidal activity against Salmonella typhimurium ATCC 14028 incubated for 4 hrs followed by culture spread on agar plates and cultured overnight; format: functional, Salmonella enterica subsp. enterica serovar Typhimurium; conditions: Salmonella enterica, ATCC 14028, 4 h; read-out: MBC>99.9
[11] = system: Pseudomonas aeruginosa; assay: Bactericidal activity against Pseudomonas aeruginosa 26305 clinical isolates incubated for 4 hrs followed by culture spread on agar plates and cultured overnight; format: functional; conditions: Pseudomonas aeruginosa, 26305, 4 h; read-out: MBC>99.9
[12] = system: Escherichia coli; assay: Antimicrobial activity against Escherichia coli UB1005 after 24 hrs by NCCLS-protocol based assay; format: functional; conditions: UB1005, 24 h
[13] = system: Salmonella typhimurium; assay: Antimicrobial activity against Salmonella typhimurium C7731 after 24 hrs by NCCLS-protocol based assay; format: functional, Salmonella enterica subsp. enterica serovar Typhimurium; conditions: Salmonella enterica, C7731, 24 h
[14] = system: Escherichia coli; assay: Bactericidal activity against Escherichia coli ATCC 25922 incubated for 4 hrs followed by culture spread on agar plates and cultured overnight; format: functional; conditions: ATCC 25922, 4 h, read-out: MBC>99.9
[15] = Bactericidal activity against Salmonella pullorum C7913 incubated for 4 hrs followed by culture spread on agar plates and cultured overnight; format: functional, Salmonella enterica subsp. enterica serovar Pullorum; conditions: Salmonella enterica, C7913, 4 h; read-out: MBC>99.9
[16] = system: Pseudomonas aeruginosa; assay: Antimicrobial activity against Pseudomonas aeruginosa 26305 clinical isolates after 24 hrs by NCCLS-protocol based assay; format: functional; conditions: Pseudomonas aeruginosa, 26305, 24 h
[17] = system: Pseudomonas aeruginosa; assay: Bactericidal activity against Pseudomonas aeruginosa 25349 clinical isolates incubated for 4 hrs followed by culture spread on agar plates and cultured overnight; format: functional; conditions: Pseudomonas aeruginosa, 25349, 4 h; read-out: MBC>99.9
[18] = system: Escherichia coli; assay: Antimicrobial activity against Escherichia coli 078 after 24 hrs by NCCLS-protocol based assay; format: functional; conditions: Escherichia coli, 078, 24 h
[19] = system: Escherichia coli; assay: Bactericidal activity against Escherichia coli 078 incubated for 4 hrs followed by culture spread on agar plates and cultured overnight; format: functional; conditions: Escherichia coli, 078, 4 h; read-out: MBC>99.9
[20] = system: Escherichia coli; assay: Bactericidal activity against Escherichia coli K99 incubated for 4 hrs followed by culture spread on agar plates and cultured overnight; format: functional; conditions: K99, 4 h, read-out: MBC>99.9
[21] = system: Acinetobacter baumannii; assay: Bactericidal activity against Acinetobacter baumannii incubated for 4 hrs followed by culture spread on agar plates and cultured overnight; format: functional; conditions: read-out: MBC>99.9
[22] = system: Acinetobacter baumannii; assay: Antimicrobial activity against Acinetobacter baumannii after 24 hrs by NCCLS-protocol based assay; format: functional
[23] = system: Salmonella typhimurium; assay: Bactericidal activity against Salmonella typhimurium C7731 incubated for 4 hrs followed by culture spread on agar plates and cultured overnight; format: functional, Salmonella enterica subsp. enterica serovar Typhimurium; conditions: Salmonella enterica, C7731, 4 h; read-out: MBC>99.9
[24] = system: Escherichia coli; assay: Antimicrobial activity against Escherichia coli K88 after 24 hrs by NCCLS-protocol based assay; format: functional; conditions: K88, 24 h
[25] = system: Pseudomonas aeruginosa; assay: Antimicrobial activity against Pseudomonas aeruginosa PAO1 after 24 hrs by NCCLS-protocol based assay; format: functional; conditions: PAO1, 24 h
[26] = system: Klebsiella pneumoniae; assay: Antimicrobial activity against Klebsiella pneumoniae after 24 hrs by NCCLS-protocol based assay; format: functional
[27] = system: Pseudomonas aeruginosa; assay: Antimicrobial activity against Pseudomonas aeruginosa CICC 21630 clinical isolates after 24 hrs by NCCLS-protocol based assay; format: functional; conditions: CICC 21630, 24 h
[28] = system: Pseudomonas aeruginosa; assay: Bactericidal activity against Pseudomonas aeruginosa ATCC 27853 incubated for 4 hrs followed by culture spread on agar plates and cultured overnight; format: functional; conditions: ATCC 27853, 4 h, read-out: MBC>99.9
[29] = system: Klebsiella pneumoniae; assay: Bactericidal activity against Klebsiella pneumoniae incubated for 4 hrs followed by culture spread on agar plates and cultured overnight; format: functional; conditions: read-out: MBC>99.9
[30] = system: Salmonella typhimurium; assay: Antimicrobial activity against Salmonella typhimurium ATCC 14028 after 24 hrs by NCCLS-protocol based assay; format: functional, Salmonella enterica subsp. enterica serovar Typhimurium; conditions: Salmonella enterica, ATCC 14028, 24 h
[31] = system: Pseudomonas aeruginosa; assay: Antimicrobial activity against Pseudomonas aeruginosa CICC 21625 clinical isolates after 24 hrs by NCCLS-protocol based assay; format: functional; conditions: CICC 21625, 24 h
[32] = system: Escherichia coli; assay: Bactericidal activity against Escherichia coli K88 incubated for 4 hrs followed by culture spread on agar plates and cultured overnight; format: functional; conditions: K88, 4 h, read-out: MBC>99.9

| Substance | MIC95 [2] [µM] | MIC95 [6] [µM] | MIC95 [7] [µM] | MIC95 [8] [µM] | MIC95 [9] [µM] | MIC95 [12] [µM] | MIC95 [13] [µM] | MIC95 [16] [µM] | MIC95 [18] [µM] | MBC [1] [µM] | MBC [3] [µM] | MBC [4] [µM] | MBC [5] [µM] | MBC [10] [µM] | MBC [11] [µM] | MBC [14] [µM] | MBC [15] [µM] | MBC [17] [µM] | MBC [19] [µM] | MBC [20] [µM] | further results |
| --- | --- | --- | --- | --- | --- | --- | --- | --- | --- | --- | --- | --- | --- | --- | --- | --- | --- | --- | --- | --- | --- |
| H-IKPIIKPIIKPIIKPIIKPIIKPIIKPIIKPI-NH2 | 16 | > 64 | > 64 | 2 | > 64 | 4 | > 64 | > 64 | 32 | > 64 | > 64 | 4 | > 64 | > 64 | > 64 | 16 | > 64 | > 64 | > 64 | 4 | MBC [21]: 4 µM; MIC95 [22]: 4 µM; MBC [23]: > 64 µM; MIC95 [24]: 1 µM; MIC95 [25]: > 64 µM; MIC95 [26]: 64 µM; MIC95 [27]: > 64 µM; MBC [28]: > 64 µM; MBC [29]: > 64 µM; MIC95 [30]: > 64 µM; MIC95 [31]: > 64 µM; MBC [32]: 2 µM |
| H-IRPIIRPIIRPIIRPIIRPI-NH2 | 8 | 8 | 32 | 4 | > 64 | 4 | 16 | > 64 | 8 | > 64 | > 64 | 8 | 64 | 8 | > 64 | 8 | 8 | > 64 | 16 | 4 | MBC [21]: 4 µM; MIC95 [22]: 4 µM; MBC [23]: 16 µM; MIC95 [24]: 1 µM; MIC95 [25]: 64 µM; MIC95 [26]: 8 µM; MIC95 [27]: > 64 µM; MBC [28]: 64 µM; MBC [29]: 16 µM; MIC95 [30]: 8 µM; MIC95 [31]: > 64 µM; MBC [32]: 1 µM |

The next lines start with results.

| MIC95 [2] [µM] | MIC95 [6] [µM] | MIC95 [7] [µM] | MIC95 [8] [µM] | MIC95 [9] [µM] | MIC95 [12] [µM] | MIC95 [13] [µM] | MIC95 [16] [µM] | MIC95 [18] [µM] | Substance | MBC [1] [µM] | MBC [3] [µM] | MBC [4] [µM] | MBC [5] [µM] | MBC [10] [µM] | MBC [11] [µM] | MBC [14] [µM] | MBC [15] [µM] | MBC [17] [µM] | MBC [19] [µM] | MBC [20] [µM] | further results |
| --- | --- | --- | --- | --- | --- | --- | --- | --- | --- | --- | --- | --- | --- | --- | --- | --- | --- | --- | --- | --- | --- |
| 16 | 16 | > 64 | 8 | > 64 | 16 | 16 | > 64 | 16 | H-IRPIIRPIIRPIIRPI-NH2 | > 64 | > 64 | 16 | > 64 | 16 | > 64 | 32 | 16 | > 64 | 32 | 16 | MBC [21]: 8 µM; MIC95 [22]: 8 µM; MBC [23]: 32 µM; MIC95 [24]: 4 µM; MIC95 [25]: > 64 µM; MIC95 [26]: 32 µM; MIC95 [27]: > 64 µM; MBC [28]: > 64 µM; MBC [29]: 32 µM; MIC95 [30]: 16 µM; MIC95 [31]: > 64 µM; MBC [32]: 8 µM |
| 2 | 4 | 8 | 1 | > 64 | 2 | 64 | > 64 | 2 | H-IRPIIRPIIRPIIRPIIRPIIRPIIRPIIRPI-NH2 | > 64 | > 64 | 2 | 4 | 16 | > 64 | 2 | 4 | > 64 | 2 | 2 | MBC [21]: 4 µM; MIC95 [22]: 2 µM; MBC [23]: > 64 µM; MIC95 [24]: 2 µM; MIC95 [25]: 4 µM; MIC95 [26]: 4 µM; MIC95 [27]: > 64 µM; MBC [28]: 8 µM; MBC [29]: 8 µM; MIC95 [30]: 8 µM; MIC95 [31]: > 64 µM; MBC [32]: 2 µM |
| 16 | 32 | > 64 | 16 | > 64 | 16 | > 64 | > 64 | 32 | H-LKPLLKPLLKPLLKPL-NH2 | > 64 | > 64 | 64 | > 64 | > 64 | > 64 | 32 | 64 | > 64 | 64 | 32 | MBC [21]: 8 µM; MIC95 [22]: 4 µM; MBC [23]: > 64 µM; MIC95 [24]: 16 µM; MIC95 [25]: > 64 µM; MIC95 [26]: > 64 µM; MIC95 [27]: > 64 µM; MBC [28]: > 64 µM; MBC [29]: > 64 µM; MIC95 [30]: > 64 µM; MIC95 [31]: > 64 µM; MBC [32]: 16 µM |
